According to PubChem BioAssay AID624130 (National Center for Advancing Translational Sciences (NCATS), 2012):
Converted amounts (≈) assume the structure as drawn.

Tested on: aqueous kinetic solubility, pH 7.4 phosphate buffer, LC-UV/MS
Test: qHTS Assay to Find Inhibitors of T. brucei phosphofructokinase: Aqueous Kinetic Solubility
Settings: stronger effect = higher value

solubility: 150 µM (≈ 63.9 µg/mL)
SMILES: O=C(Cc1ccc(Cl)c(Cl)c1)Nc1ccc(S(=O)(=O)Nc2ccon2)cc1
